ChEMBL document CHEMBL3045238, “Structure-Activity Studies of Insecticidal 2-Methoxy-1, 3, 2-oxazaphospholidine 2-Sulfides against Musca domestica and Tribolium castaneum” (J Pestic Sci, 1990)

Experiments:
[1] = tested on: Musca domestica; assay: Insecticidal activity against female Musca domestica (house fly) assessed as mortality compound topically applied to the abdomen measured per fly after 24 hr; format: functional
[2] = tested on: Tribolium castaneum; assay: Insecticidal activity against fourth-instar Tribolium castaneum (red flour beetle) assessed as inhibition of larval weight gain at 30 degC measured after 2 days by feeding method; format: functional

SMILES | LD50 [1] | I50 [2] | pLD50 [1]
COP1(=S)NCC(c2ccc3ccccc3c2)O1 (configuration not stated) | 0.64 µg | 11 ppm | –
COP1(=S)NCC(c2ccc(-c3ccccc3)cc2)O1 (configuration not stated) | >1 µg | 62 ppm | –
COc1ccccc1C1CNP(=S)(OC)O1 (configuration not stated) | >1 µg | 41 ppm | –
COc1cccc(C2CNP(=S)(OC)O2)c1 (configuration not stated) | 0.18 µg | 46 ppm | 3.16
COc1cccc(C2(C)CNP(=S)(OC)O2)c1 (configuration not stated) | >1 µg | >100 ppm | –
COc1cccc(C2CNP(=S)(OC)O2)c1OC (configuration not stated) | 0.53 µg | 6.6 ppm | –
COc1ccc(OC)c(C2CNP(=S)(OC)O2)c1 (configuration not stated) | >1 µg | 22 ppm | –
COc1ccc(C2CNP(=S)(OC)O2)cc1OC (configuration not stated) | >1 µg | >100 ppm | –
COc1cc(OC)cc(C2CNP(=S)(OC)O2)c1 (configuration not stated) | 1.12 µg | >100 ppm | –
COc1cc(C2CNP(=S)(OC)O2)cc(OC)c1OC (configuration not stated) | >1 µg | >100 ppm | –
COP1(=S)NCC(c2ccc3c(c2)OCO3)O1 (configuration not stated) | >1 µg | >100 ppm | –
COP1(=S)NCC(c2cccc(Oc3ccccc3)c2)O1 (configuration not stated) | >1 µg | >100 ppm | –
COP1(=S)NCC(c2cccc([N+](=O)[O-])c2)O1 (configuration not stated) | >1 µg | >100 ppm | –
COP1(=S)NCC(c2ccc([N+](=O)[O-])cc2)O1 (configuration not stated) | >1 µg | >100 ppm | –
COP1(=S)NCC(c2ccc(Cl)cc2Cl)O1 (configuration not stated) | 0.8 µg | >100 ppm | –
COP1(=S)NCC(c2c(Cl)cccc2Cl)O1 (configuration not stated) | >1 µg | 49 ppm | –
COP1(=S)NCC(c2ccc(Cl)c(Cl)c2)O1 (configuration not stated) | >1 µg | >100 ppm | –
COP1(=S)NCC(c2cc(Cl)cc(Cl)c2)O1 (configuration not stated) | >1 µg | >100 ppm | –
COP1(=S)NCC(c2ccccc2F)O1 (configuration not stated) | 0.14 µg | 41 ppm | 3.25
COP1(=S)NCC(C)(c2ccccc2F)O1 (configuration not stated) | 1.26 µg | >100 ppm | –
COP1(=S)NCC(c2cccc(F)c2)O1 (configuration not stated) | 0.16 µg | >100 ppm | 3.19
COP1(=S)NCC(c2ccc(F)cc2)O1 (configuration not stated) | 0.083 µg | >100 ppm | 3.47

SMILES | LD50 [1] | I50 [2] | pLD50 [1]
COP1(=S)NCC(c2cccc(F)c2F)O1 (configuration not stated) | >1 µg | >100 ppm | –
COP1(=S)NCC(c2ccc(F)cc2F)O1 (configuration not stated) | 0.35 µg | >100 ppm | –
COP1(=S)NCC(c2cc(F)ccc2F)O1 (configuration not stated) | 0.32 µg | >100 ppm | –
COP1(=S)NCC(c2c(F)cccc2F)O1 (configuration not stated) | 0.82 µg | >100 ppm | –
COP1(=S)NCC(c2ccc(F)c(F)c2)O1 (configuration not stated) | 0.59 µg | >100 ppm | –
COP1(=S)NCC(c2cc(F)cc(F)c2)O1 (configuration not stated) | >1 µg | >100 ppm | –
COP1(=S)NCC(c2ccccc2C)O1 (configuration not stated) | 0.27 µg | 35 ppm | 2.95
COP1(=S)NCC(c2cccc(C)c2)O1 (configuration not stated) | >1 µg | 15 ppm | –
COP1(=S)NCC(C)(c2cccc(C)c2)O1 (configuration not stated) | >1 µg | >100 ppm | –
COP1(=S)NCC(c2ccc(C)cc2)O1 (configuration not stated) | 0.084 µg | 5.5 ppm | 3.46
COP1(=S)NCC(c2ccccc2C(F)(F)F)O1 (configuration not stated) | >1 µg | >100 ppm | –
COP1(=S)NCC(c2cccc(C(F)(F)F)c2)O1 (configuration not stated) | >1 µg | >100 ppm | –
COP1(=S)NCC(c2ccc(C(F)(F)F)cc2)O1 (configuration not stated) | >1 µg | >100 ppm | –
COP1(=S)NCC(c2ccc(C)cc2C)O1 (configuration not stated) | 0.73 µg | 33 ppm | –
COP1(=S)NCC(c2cc(C)ccc2C)O1 (configuration not stated) | 0.23 µg | 84 ppm | –
CCc1ccc(C2CNP(=S)(OC)O2)cc1 (configuration not stated) | 0.22 µg | 3.7 ppm | 3.07
COP1(=S)NCC(c2ccc(C(C)C)cc2)O1 (configuration not stated) | 0.42 µg | 5.2 ppm | 2.81
COP1(=S)NCC(c2ccccc2)O1 (configuration not stated) | 0.035 µg | 43 ppm | 3.82
COP1(=S)NCC(C)(c2ccccc2)O1 (configuration not stated) | 0.88 µg | >100 ppm | –
COP1(=S)NCC(c2ccccc2)(C(C)C)O1 (configuration not stated) | >1 µg | >100 ppm | –
CCOC(OCC)C1(c2ccccc2)CNP(=S)(OC)O1 (configuration not stated) | >1 µg | >100 ppm | –
COP1(=S)NCC(c2ccccc2)(c2ccccc2)O1 (configuration not stated) | >1 µg | >100 ppm | –

SMILES | LD50 [1] | I50 [2] | pLD50 [1]
COP1(=S)NCC(Cc2ccccc2)O1 (configuration not stated) | >1 µg | >100 ppm | –
COP1(=S)NCC(CCc2ccccc2)O1 (configuration not stated) | >1 µg | >100 ppm | –
COP1(=S)NCC(C(C)c2ccccc2)O1 (configuration not stated) | >1 µg | >100 ppm | –
COP1(=S)NCC(c2cccc3ccccc23)O1 (configuration not stated) | 0.68 µg | 25 ppm | –
COP1(=S)NCC(C)(c2cccc3ccccc23)O1 (configuration not stated) | >1 µg | >100 ppm | –
COP1(=S)NCC(C2CC=CCC2)O1 (configuration not stated) | >1 µg | >100 ppm | –
COP1(=S)NCC(C2CCCCC2)O1 (configuration not stated) | >1 µg | >100 ppm | –
COP1(=S)NCC2(CCCCC2)O1 (configuration not stated) | >1 µg | >100 ppm | –
COP1(=S)NCC2(CCCC(C)C2)O1 (configuration not stated) | >1 µg | >100 ppm | –
COP1(=S)NCC2(CC3CCC2(C)C3(C)C)O1 (configuration not stated) | >1 µg | >100 ppm | –
COP1(=S)NCC2(O1)C1CCC(C1)C2(C)C (configuration not stated) | >1 µg | >100 ppm | –
COP1(=S)NCC2(CCCc3ccccc32)O1 (configuration not stated) | >1 µg | >100 ppm | –
COP1(=S)NCC2(Cc3ccccc3C2)O1 (configuration not stated) | >1 µg | >100 ppm | –
COP1(=S)NCC(c2ccccc2Br)O1 (configuration not stated) | 0.5 µg | 49 ppm | 2.79
COP1(=S)NCC(c2cccc(Br)c2)O1 (configuration not stated) | 0.2 µg | 59 ppm | 3.19
COP1(=S)NCC(C)(c2cccc(Br)c2)O1 (configuration not stated) | 0.29 µg | >100 ppm | –
COP1(=S)NCC(c2ccc(Br)cc2)O1 (configuration not stated) | 0.21 µg | >100 ppm | 3.13
COP1(=S)NCC(c2ccccc2Cl)O1 (configuration not stated) | 0.53 µg | 72 ppm | 2.7
COP1(=S)NCC(c2cccc(Cl)c2)O1 (configuration not stated) | 0.24 µg | >100 ppm | 3.04
COP1(=S)NCC(c2ccc(Cl)cc2)O1 (configuration not stated) | 0.16 µg | >100 ppm | 3.22
COP1(=S)NCC(c2cccc(Cl)c2Cl)O1 (configuration not stated) | >1 µg | >100 ppm | –
COP(=S)(OC)Oc1ccc([N+](=O)[O-])c(C)c1 [FENITROTHION] | 0.051 µg | 4.7 ppm | –
